Where two headings read alike, the source gives them in different places. Marks after values point to notes of the source that are not given here. Numbered stars: 1 amine (or outer) side, 2 acyl side, 3 side chain; on linkers, the order of the positions; unused ones are H or OH. Square brackets hold non-standard residues; d marks the D form. Peptide text beside a SMILES is read from it. * marks the point of attachment. X1 = O=C1[C@@H](N[*:1])Cc2ccccc2CN1CCC(=O)[*:2]; Dmt = Cc1cc(O)cc(C)c1C[C@H](N)C(=O)O; 4Amb = NCc1ccc(C(=O)O)cc1; Ac5c = NC1(C(=O)O)CCCC1; X2 = C(CN*)CN1CCOCC1
What was measured:
human recombinant DOR [1] = biological target: T1, human recombinant DOR (Homo sapiens, UniProt P41143); set-up: method as in PMID 23007594; conditions: data from reported literature ref 30, cited from earlier work; for DOR α ± SEM: intrinsic activity
T1 construct: expressed in transfected cells; host or cells: CHO cells (gift from Prof. Girolamo Calo', Ferrara University)
T1 sequence (P41143 whole entry): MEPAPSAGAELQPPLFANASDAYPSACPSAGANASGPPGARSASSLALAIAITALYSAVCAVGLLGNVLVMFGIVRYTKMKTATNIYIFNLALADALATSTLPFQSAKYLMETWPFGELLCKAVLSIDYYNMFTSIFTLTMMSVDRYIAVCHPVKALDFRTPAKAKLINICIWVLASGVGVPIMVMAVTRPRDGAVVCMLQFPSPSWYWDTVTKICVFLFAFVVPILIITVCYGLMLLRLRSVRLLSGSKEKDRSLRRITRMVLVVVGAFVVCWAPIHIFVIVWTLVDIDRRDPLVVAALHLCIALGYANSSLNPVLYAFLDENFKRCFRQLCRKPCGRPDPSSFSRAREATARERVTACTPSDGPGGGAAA

human recombinant MOR [2] = biological target: T2, human recombinant MOR (Homo sapiens, UniProt P35372); assay: Calcium mobilization assay, CHO MOR cells with Gαqi5; format: cell-based; conditions: for reduction in potency at MOR compared to dermorphin / reduction in potency at MOR compared to opioid parent pharmacophore KGOP01 / EC50: calcium mobilization; for EC50: CHO MOR Gαqi5, maximum tested concentration 10 µM, read-out: MOR EC50 ± SEM; for MOR α ± SEM: intrinsic activity: Emax of ligand / Emax of dermorphin
T2 construct: expressed in transfected cells; host or cells: CHO cells (gift from Prof. Girolamo Calo', Ferrara University)
T2 sequence (P35372 whole entry): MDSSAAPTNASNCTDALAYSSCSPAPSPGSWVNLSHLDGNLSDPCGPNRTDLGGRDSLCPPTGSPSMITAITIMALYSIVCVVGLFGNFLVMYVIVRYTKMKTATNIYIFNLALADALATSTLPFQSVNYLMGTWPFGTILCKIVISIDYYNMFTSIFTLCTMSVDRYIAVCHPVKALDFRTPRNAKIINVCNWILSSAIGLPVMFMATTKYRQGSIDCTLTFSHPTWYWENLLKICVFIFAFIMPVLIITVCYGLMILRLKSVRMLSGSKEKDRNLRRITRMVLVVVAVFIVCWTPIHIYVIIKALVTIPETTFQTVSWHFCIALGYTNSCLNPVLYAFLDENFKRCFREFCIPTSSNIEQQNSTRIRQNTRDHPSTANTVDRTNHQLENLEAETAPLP

human recombinant MOR [3] = biological target: T2, human recombinant MOR; assay: Opioid receptor radioligand binding assay, MOR
human recombinant DOR [4] = biological target: T1, human recombinant DOR; assay: Opioid receptor radioligand binding assay, DOR
NK2 (h) = biological target: T3, NK2 (h) (Homo sapiens, UniProt P21452); assay: NK2 radioligand binding assay (Eurofins)
T3 construct: host or cells: CHO cells
T3 sequence (P21452 1-398): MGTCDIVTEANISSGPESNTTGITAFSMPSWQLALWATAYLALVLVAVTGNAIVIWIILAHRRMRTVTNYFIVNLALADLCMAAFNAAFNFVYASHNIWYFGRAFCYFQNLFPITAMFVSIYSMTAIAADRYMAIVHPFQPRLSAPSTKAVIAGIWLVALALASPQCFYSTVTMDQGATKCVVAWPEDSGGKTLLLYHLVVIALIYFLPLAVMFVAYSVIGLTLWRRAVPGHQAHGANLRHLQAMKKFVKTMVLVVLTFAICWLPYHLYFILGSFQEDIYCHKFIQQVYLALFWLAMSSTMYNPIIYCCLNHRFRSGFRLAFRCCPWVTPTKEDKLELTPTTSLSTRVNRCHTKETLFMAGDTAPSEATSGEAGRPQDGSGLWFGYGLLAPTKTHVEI

human recombinant KOR [5] = biological target: T4, human recombinant KOR (Homo sapiens, UniProt P41145); assay: Opioid receptor radioligand binding assay, KOR
T4 construct: expressed in transfected cells; host or cells: CHO cells (gift from Prof. Girolamo Calo', Ferrara University)
T4 sequence (P41145 whole entry): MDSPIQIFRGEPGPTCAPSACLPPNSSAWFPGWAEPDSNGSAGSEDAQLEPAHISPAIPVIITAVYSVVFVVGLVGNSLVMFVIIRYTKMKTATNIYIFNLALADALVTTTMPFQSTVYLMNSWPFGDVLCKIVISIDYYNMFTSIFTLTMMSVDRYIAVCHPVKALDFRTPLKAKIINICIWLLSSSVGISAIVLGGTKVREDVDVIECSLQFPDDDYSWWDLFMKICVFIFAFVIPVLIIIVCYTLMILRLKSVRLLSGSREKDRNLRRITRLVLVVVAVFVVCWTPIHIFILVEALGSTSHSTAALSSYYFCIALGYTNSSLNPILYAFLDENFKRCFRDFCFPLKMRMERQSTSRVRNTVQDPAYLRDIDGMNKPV

human recombinant DOR [6] = biological target: T1, human recombinant DOR; assay: Calcium mobilization assay, CHO DOR cells with GαqG66Di5; format: cell-based; conditions: for decreased potency at DOR compared to reference DPDPE / EC50: calcium mobilization; for EC50: CHO DOR GαqG66Di5, maximum tested concentration 10 µM, read-out: DOR EC50 ± SEM; for DOR α ± SEM: intrinsic activity: Emax of ligand / Emax of DPDPE
human recombinant KOR [7] = biological target: T4, human recombinant KOR; assay: Calcium mobilization assay, CHO KOR cells with Gαqi5; format: cell-based; conditions: for KOR α ± SEM: intrinsic activity: Emax of ligand / Emax of dynorphin A
hMOR [8] = tested on: hMOR; set-up: method as in PMID 15094830, PMID 32365707; conditions: Figure 1B; read-out: EC50 (CHO-hMOR); cited from earlier work
hMOR [9] = biological target: hMOR; set-up: method as in PMID 15094830, PMID 32365707; conditions: Figure 1B; read-out: Ki (CHO-hMOR); cited from earlier work
NK3 receptor [10] = tested on: NK3 receptor; set-up: method as in PMID 17728699; conditions: Figure 1A; cited from earlier work
hNK3 = biological target: hNK3; set-up: method as in PMID 17728699; conditions: Figure 1A; cited from earlier work
NK3 receptor [11] = tested on: NK3 receptor; set-up: method as in PMID 17728699; conditions: Figure 1A; cited from earlier work; remark: listed apart in the source
NK3 (h) = biological target: T5, NK3 (h) (Homo sapiens, UniProt P29371); assay: NK3 radioligand binding assay (Eurofins)
T5 construct: host or cells: CHO cells
T5 sequence (P29371 1-465): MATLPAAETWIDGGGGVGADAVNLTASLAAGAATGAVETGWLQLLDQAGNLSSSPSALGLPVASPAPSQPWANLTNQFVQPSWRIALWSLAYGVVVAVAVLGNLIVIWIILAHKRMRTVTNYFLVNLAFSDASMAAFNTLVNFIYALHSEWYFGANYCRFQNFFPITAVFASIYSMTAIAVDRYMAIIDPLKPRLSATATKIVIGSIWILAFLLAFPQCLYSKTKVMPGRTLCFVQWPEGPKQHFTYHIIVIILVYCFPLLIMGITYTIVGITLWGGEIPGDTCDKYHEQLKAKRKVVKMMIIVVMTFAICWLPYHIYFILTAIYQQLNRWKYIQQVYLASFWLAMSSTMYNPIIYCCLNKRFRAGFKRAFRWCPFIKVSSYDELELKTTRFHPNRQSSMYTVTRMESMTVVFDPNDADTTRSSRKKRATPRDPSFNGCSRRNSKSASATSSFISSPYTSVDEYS

[12] = calcium mobilization, CHO KOR Gαqi5, maximum tested concentration 10 µM, crc = concentration-response curve

For CC[C@H](C)[C@H](NC(=O)[C@H](CCCNC(=N)N)NC(=O)[C@H](CCCNC(=N)N)NC(=O)[C@H](CC(C)C)NC(=O)[C@H](Cc1ccccc1)NC(=O)CNC(=O)CNC(=O)[C@@H](N)Cc1ccc(O)cc1)C(=O)N[C@@H](CCCNC(=N)N)C(=O)N1CCC[C@H]1C(=O)N[C@@H](CCCCN)C(=O)N[C@@H](CC(C)C)C(=O)N[C@@H](CCCCN)C(=O)N[C@@H](Cc1c[nH]c2ccccc12)C(=O)N[C@@H](CC(=O)O)C(=O)N[C@@H](CC(N)=O)C(=O)N[C@@H](CCC(N)=O)C(=O)O [dynorphin A], the “DOR α ± SEM” value (human recombinant DOR [1]) is given as 0.99 ± 0.04 ^a.

With Cc1cc(O)cc(C)c1C[C@H](N)C(=O)N[C@H](CCCNC(=N)N)C(=O)N[C@H]1Cc2ccccc2CN(CCC(=O)N[C@@H](CC(=O)O)C(=O)N[C@@H](Cc2ccc(O)cc2)C(=O)N[C@H](Cc2c[nH]c3ccccc23)C(=O)N[C@H](C(=O)N[C@H](Cc2c[nH]c3ccccc23)C(=O)N[C@H](Cc2c[nH]c3ccccc23)C(=O)N[C@@H](CCCCN)C(N)=O)C(C)C)C1=O [SBL-OPNK-5] (H-[Dmt][dR][X1]DY[dW]V[dW][dW]K-NH2) the “reduction in potency at MOR compared to dermorphin” value (human recombinant MOR [2]) was 2 fold, the “reduction in potency at MOR compared to opioid parent pharmacophore KGOP01” value (human recombinant MOR [2]) was 18 fold and the EC50 (human recombinant MOR [2]) was 10.2 ± 0.67 nM. The “MOR α ± SEM” value (human recombinant MOR [2]) was 0.91 ± 0.04, the Ki (human recombinant MOR [3]) was 2.11 ± 0.04 nM and the Ki (human recombinant DOR [4]) was 10 ± 3.2 nM. It also gave an IC50 (NK2 (h)) of 3 ± 1 nM, a Ki (NK2 (h)) of 1.6 ± 1.1 nM and a Ki (human recombinant KOR [5]) of 90.7 ± 0.94 nM. For the same compound, the “decreased potency at DOR compared to reference DPDPE” value (shortened to “decreased potency at DOR”) (human recombinant DOR [6]) was 2–3 fold, the EC50 (human recombinant DOR [6]) was 118 ± 26 nM and the “DOR α ± SEM” value (human recombinant DOR [6]) was 1.01 ± 0.03. For the same compound, the EC50 (human recombinant KOR [7]; calcium mobilization, CHO KOR Gαqi5, maximum tested concentration 10 µM, crc = concentration-response curve, read-out: KOR EC50 ± SEM) was 415 ± 133 nM and the “KOR α ± SEM” value (human recombinant KOR [7]) was 0.44 ± 0.06.

In the case of Cc1cc(O)cc(C)c1C[C@H](N)C(=O)N[C@H](CCCNC(=N)N)C(=O)N[C@@H](Cc1ccccc1)C(=O)N[C@@H](CCCCN)C(N)=O [Dmt-DALDA, H-Dmt-D-Arg-Phe-Lys-NH2], the EC50 (hMOR [8]) is listed as 0.51 nM and the Ki (hMOR [9]) is listed as 0.23 nM.

For CC[C@H](NC(=O)c1c(O)c(-c2ccccc2)nc2ccccc12)c1ccccc1 [Talnetant], the “pA2 (IP accumulation)” value (NK3 receptor [10]) is listed as 7.7, the Ki (hNK3) is listed as 2 nM and the “pA2 (Ca2+ mobilisation)” value (NK3 receptor [11]) is listed as 8.1.

For C[C@@H](NC(=O)[C@@H](N)Cc1ccc(O)cc1)C(=O)N[C@@H](Cc1ccccc1)C(=O)NCC(=O)N[C@@H](Cc1ccc(O)cc1)C(=O)N1CCC[C@H]1C(=O)N[C@@H](CO)C(N)=O [dermorphin, reference compound], the “MOR α ± SEM” value (human recombinant MOR [2]) is given as 1.00, the “DOR EC50 ± SEM (nM)” value (human recombinant DOR [1]; calcium mobilization, chimeric G protein) is given as “Inactive ^a” and the “DOR α ± SEM” value (human recombinant DOR [1]) is given as “Inactive ^a”. The “KOR EC50 ± SEM (nM)” value (human recombinant KOR [7]; [12]) was “inactive” and the “KOR α ± SEM” value (human recombinant KOR [7]) was “inactive”.

In the case of Cc1cc(O)cc(C)c1C[C@H](N)C(=O)N[C@H](CCCNC(=N)N)C(=O)N[C@H]1Cc2ccccc2CN(CCC(=O)NCc2ccc(C(=O)NC3(C(=O)N[C@H](Cc4ccccc4)C(=O)NCCCN4CCOCC4)CCCC3)cc2)C1=O [SBL-OPNK-7] (H-[Dmt][dR][X1][4Amb][Ac5c][dF]-X2), the “reduction in potency at MOR compared to dermorphin” value (human recombinant MOR [2]) is reported as 3 fold, the “reduction in potency at MOR compared to opioid parent pharmacophore KGOP01” value (human recombinant MOR [2]) is reported as 24 fold and the EC50 (human recombinant MOR [2]) is reported as 13.1 ± 1.84 nM. For the same compound, the “MOR α ± SEM” value (human recombinant MOR [2]) was 0.89 ± 0.04, the Ki (human recombinant MOR [3]; [3H]DAMGO displacement, CHO cell membranes, human recombinant receptor, read-out: Ki [nM] ± SEM MOR) was 2.83 ± 0.02 nM and the Ki (human recombinant DOR [4]; [3H][Ile5,6]deltorphin-2 displacement, CHO cell membranes, human recombinant receptor, read-out: Ki [nM] ± SEM DOR) was 3.26 ± 0.09 nM. The IC50 (NK2 (h); [125I]NKA 0.1 nM, human recombinant (CHO cells), 60 min RT, n.c. = less than 25% inhibitory binding at highest validated test concentrations, read-out: IC50 [nM] ± SEM, NK2 receptor) was 0.63 ± 0.22 nM, the Ki (NK2 (h); [125I]NKA 0.1 nM, human recombinant (CHO cells), Cheng Prusoff, n.c. = not calculated, read-out: Ki [nM] ± SEM, NK2 receptor) was 0.34 ± 0.24 nM and the Ki (human recombinant KOR [5]; [3H]nor-BNI displacement, CHO cell membranes, human recombinant receptor, read-out: Ki [nM] ± SEM KOR) was 53 ± 3.2 nM. For the same compound, the “decreased potency at DOR” value (human recombinant DOR [6]) was 2–3 fold, the EC50 (human recombinant DOR [6]) was 66.5 ± 11.7 nM and the “DOR α ± SEM” value (human recombinant DOR [6]) was 1.02 ± 0.02. For the same compound, the “KOR EC50 ± SEM (nM)” value (human recombinant KOR [7]; [12]) was “completely inactive” and the “KOR α ± SEM” value (human recombinant KOR [7]) was “inactive”.

CC[C@H](NC(=O)c1c(OCCNC(C)=O)c(-c2ccccc2)nc2ccccc12)c1ccccc1 [SBL-OPNK-3] showed an IC50 (NK3 (h); [3H]SR 142801 0.4 nM, human recombinant (CHO cells), 120 min RT, read-out: IC50 [nM] ± SEM, NK3 receptor) of 20.3 ± 7.2 nM and a Ki (NK3 (h); [3H]SR 142801 0.4 nM, human recombinant (CHO cells), Cheng Prusoff, read-out: Ki [nM] ± SEM, NK3 receptor) of 11 ± 7.8 nM.

In the case of CC[C@H](NC(=O)c1c(OCCNC(=O)CCN2Cc3ccccc3C[C@H](NC(=O)[C@@H](CCCNC(=N)N)NC(=O)[C@@H](N)Cc3c(C)cc(O)cc3C)C2=O)c(-c2ccccc2)nc2ccccc12)c1ccccc1 [SBL-OPNK-9], the EC50 (human recombinant MOR [2]) is reported as 31.3 ± 7.39 nM, the “MOR α ± SEM” value (human recombinant MOR [2]) is reported as 0.83 ± 0.05 and the Ki (human recombinant MOR [3]) is reported as 5.43 ± 0.08 nM. It also gave a Ki (human recombinant DOR [4]) of 6.57 ± 4.02 nM, an IC50 (NK3 (h)) of 6.7 ± 2.4 nM and a Ki (NK3 (h)) of 3.6 ± 2.5 nM. For the same compound, the “increase of NK3 affinity and potency compared to reference SB 222200” value (NK3 (h)) was 1.5 fold, the Ki (human recombinant KOR [5]) was 97.1 ± 4.72 nM and the “decreased potency at DOR” value (human recombinant DOR [6]) was 2–3 fold. The EC50 (human recombinant DOR [6]) was 84.1 ± 18 nM, the “DOR α ± SEM” value (human recombinant DOR [6]) was 1.02 ± 0.03 and the “KOR EC50 ± SEM (nM)” value (human recombinant KOR [7]; [12]) was “crc incomplete”. The “KOR α ± SEM” value (human recombinant KOR [7]) was “crc incomplete”.

From article PMC8434392, “Harnessing the Anti-Nociceptive Potential of NK2 and NK3 Ligands in the Design of New Multifunctional μ/δ-Opioid Agonist–Neurokinin Antagonist Peptidomimetics” (Molecules, 2021)
